Reference: US12226479B2, “Methods and compositions of use of CD8+ tumor infiltrating lymphocyte subtypes and gene signatures thereof” (THE GENERAL HOSPITAL CORPORATION, priority 2017, dated 2025)

System: B16-F10
Experiment: Transplantable B16-F10 melanoma mouse model: tumor growth and survival under CD39 inhibitor and checkpoint antibodies
From the text: A schematic summary of the therapy regimen used in the transplantable B16-F10 mouse model (described in Methods). Mice were divided into four groups (n=10 per group): untreated (vehicle control), anti-TIM3, CD39 inhibitor (CD39i, using POM-1 small molecule) and anti-TIM3 in combination with CD39i. FIG. 26D. Box plots showing the kinetics of tumor growth between the different groups of mice on days +4, +7, +11, +14 and +18 post tumor transplantation. Data in box plots are means±SEM. P-value was determined by unpaired-student's t-test. FIG. 26E. Mean tumor volumes for all 4 groups are shown, means±SEM. FIG. 26F. Survival at day 30 of B16-F10 tumor-bearing mice for all 4 groups. Log-rank P-value is shown. Data shown for C-F represents one out of two independent experiments, n=10 for each group per experiment. ns—not significant.
To that end Applicants used the aggressive B16-F10 melanoma mouse model. Mice were treated with the small molecule POM-1 to block CD39 activity^38, alone or in combination with anti-TIM3 blocking antibodies (FIG. 26C).
Mice and tumor transplant. […] B16-F10 cells (0.5×10^6) were intradermally injected into the right flank using a 30 g needle and tumors were measured every 4 days in two dimensions using a digital caliper. Tumor volume (mm^3) was calculated using the following formula V=(L*W^2)/2 (V=volume, L=tumor length, tumor width). […]

O.[Na+].[Na+].[Na+].[Na+].[Na+].[Na+].[O]=[W](=[O])([O-])[O-].[O]=[W](=[O])([O-])[O-].[O]=[W](=[O])([O-])[O-].[O]=[W](=[O])=[O].[O]=[W](=[O])=[O].[O]=[W](=[O])=[O].[O]=[W](=[O])=[O].[O]=[W](=[O])=[O].[O]=[W](=[O])=[O].[O]=[W](=[O])=[O].[O]=[W](=[O])=[O].[O]=[W](=[O])=[O] [POM-1, polyoxometalate-1]
tumor growth / tumor size (B16-F10 intradermal tumors, CD39 inhibitor and/or anti-TIM3, versus untreated): transiently reduced tumor growth until day 14
survival on day 30 (B16-F10 tumor-bearing mice, n=10 per group, POM-1 5 mg/kg/day i.p., anti-TIM3 100 μg/dose i.p. every 3 days, from day 4): 10%
